Source: the Kinase Knowledgebase extract (Sharma et al. 2016)

What was measured:
[1] = target: CDK2 (UniProt P24941); experiment: Enzyme Assay
[2] = target: CDK2 (UniProt P24941); experiment: Enzyme Assay; remark: listed apart in the source

Compound	IC50 [1] [µM]	IC50 [2] [µM]
O=C(NCC1CCCO1)c1n[nH]cc1NC(=O)c1c(F)cccc1F (stereo not drawn)	< 20	< 20
O=C(NCc1ccncc1)c1n[nH]cc1NC(=O)c1c(F)cccc1F	< 20	< 20
Cc1nn(C)c(C)c1CNC(=O)c1n[nH]cc1NC(=O)c1c(F)cccc1F	< 20	< 20
Cc1cc(CNC(=O)c2n[nH]cc2NC(=O)c2c(F)cccc2F)no1	< 20	< 20
COc1ccccc1CNC(=O)c1n[nH]cc1NC(=O)c1c(F)cccc1F	< 20	< 20
O=C(N[C@H]1CC[C@H](NC2CCOCC2)CC1)c1n[nH]cc1NC(=O)c1c(F)cccc1F	< 20	–
O=C(Nc1c[nH]nc1C(=O)NC1CCNCC1)c1ccccc1Br	< 20	–
CN1CCC(NC(=O)c2n[nH]cc2NC(=O)c2ccccc2OC(C)(C)C)CC1	< 20	–
